Data published in the supplement of paper PMC10307832.

Experiments:
Experiment in all cases: relative viability (nuclei count vs DMSO), 5 days (fraction); higher = more cells survive
Masitinib + Navitoclax = compound: Cc1ccc(NC(=O)c2ccc(CN3CCN(C)CC3)cc2)cc1Nc1nc(-c2cccnc2)cs1 [Masitinib] + CC1(C)CCC(c2ccc(Cl)cc2)=C(CN2CCN(c3ccc(C(=O)NS(=O)(=O)c4ccc(N[C@H](CCN5CCOCC5)CSc5ccccc5)c(S(=O)(=O)C(F)(F)F)c4)cc3)CC2)C1 [Navitoclax] (partner 0.5 µM)
Procedure, shortened: (§1)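 The day after seeding in 1536-well plates, lung cancer cell lines were treated by pin tool with a single drug, or with a fixed anchor-drug dose together with five library-drug doses (not always all listed) in √10 steps. After 5 days, a combined fix-and-stain solution (final 0.05% Triton X-100, 1% formaldehyde, 1 ug/ml Hoechst) was added. Nuclei counted on 4× images gave relative viability as treated counts over vehicle counts, reported as the median of duplicate plates.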

Masitinib + Trametinib = compound: Cc1ccc(NC(=O)c2ccc(CN3CCN(C)CC3)cc2)cc1Nc1nc(-c2cccnc2)cs1 [Masitinib] + CC(=O)Nc1cccc(-n2c(=O)n(C3CC3)c(=O)c3c(Nc4ccc(I)cc4F)n(C)c(=O)c(C)c32)c1 [Trametinib] (partner 0.02 µM)
Procedure, shortened: as §1

[1] = compound: CC1=CC(=CC=C1)NC2=NC(=CS2)C3=CC=NC=C3 + O=C(CCCCCCC(=O)Nc1ccccc1)NO [Vorinostat] (partner 1 µM)
Procedure, shortened: as §1

[2] = compound: CC1=CC(=CC=C1)NC2=NC(=CS2)C3=CC=NC=C3 + COc1cc2c(Oc3ccc(NC(=O)C4(C(=O)Nc5ccc(F)cc5)CC4)cc3F)ccnc2cc1OCCCN1CCOCC1 [Foretinib] (partner 0.25 µM)
Procedure, shortened: as §1

Cell Line	relative viability (Masitinib + Navitoclax; first compound 0.01 µM)	relative viability (Masitinib + Navitoclax; first compound 0.03162 µM)	relative viability (Masitinib + Navitoclax; first compound 0.1 µM)	relative viability (Masitinib + Navitoclax; first compound 0.3162 µM)	relative viability (Masitinib + Navitoclax; first compound 1 µM)	relative viability (Masitinib + Trametinib; first compound 0.01 µM)	relative viability (Masitinib + Trametinib; first compound 0.03162 µM)	relative viability (Masitinib + Trametinib; first compound 0.1 µM)	relative viability (Masitinib + Trametinib; first compound 0.3162 µM)	relative viability (Masitinib + Trametinib; first compound 1 µM)	relative viability ([1]; first compound 0.08 µM)	relative viability ([1]; first compound 0.253 µM)	relative viability ([1]; first compound 0.8 µM)	relative viability ([1]; first compound 2.53 µM)	relative viability ([1]; first compound 8 µM)	relative viability ([2]; first compound 0.08 µM)	relative viability ([2]; first compound 0.253 µM)	relative viability ([2]; first compound 0.8 µM)	relative viability ([2]; first compound 2.53 µM)	relative viability ([2]; first compound 8 µM)
HCC-15	0.667	0.606	0.819	0.647	0.725	0.364	0.373	0.389	0.234	0.354	0.678	0.645	0.773	0.67	0.636	0.942	1.01	0.928	1.07	0.922
HCC-44	0.84	0.84	0.952	0.806	0.977	0.811	1.04	0.989	0.853	1.07	1.02	0.926	0.826	0.797	0.825					
HCC-78	0.722	0.822	0.839	0.77	0.763	0.509	0.787	0.746	0.745	0.65	0.513	0.468	0.477	0.41	0.481		0.484	0.558	0.537	0.568
HCC-366	1.04	1.03	1.2	1.09	1		0.275	0.407	0.333	0.34	0.248	0.172	0.255	0.186	0.198	0.859	0.89	0.883	0.885	0.9
HCC-827	0.924	0.996	1.01	0.942	1.01	0.508	0.532	0.539	0.603	0.547	0.778	0.772	0.819	0.651	0.653	1.02	1	0.997	1.02	0.958
IA-LM	0.733	0.699	1.02	0.689	1.01						0.884	0.954	0.942		0.78	1.04	1.16	1.03	0.941	0.838
LCLC-103H							0.624	0.693	0.713	0.669	0.635	0.69	0.679	0.667	0.567	0.663	0.695	0.725	0.76	0.608
NCI-H358						0.148	0.13	0.135	0.121	0.122	0.633	0.653	0.518	0.662	0.624	0.699	0.797	0.671	0.934	0.566
NCI-H522						0.742	0.784	0.787	0.73	0.721	0.91	1.03	1.01	0.924	0.849					
NCI-H650						1.05	1.1	1.03	1.28	0.99	0.414	0.429	0.395	0.624	0.599	0.955	0.98	1.08	1.02	1.02
NCI-H661						0.493	0.486	0.563	0.591	0.564	0.764	0.753	0.747	0.718	0.666	0.904	1.07	0.973	0.999	0.863
NCI-H1299	1.08	1.03	1.04	1.04	1.03											1	1.06	0.993	1.01	0.897
NCI-H1563																0.772	0.962	0.974	0.912	0.765
NCI-H1623																0.836	0.729	0.776	0.699	0.824
NCI-H1648						0.523	0.436	0.414		0.442	0.279	0.455	0.548	0.422	0.349					
NCI-H1703	0.748	0.898	0.464	0.29	0.243											0.293	0.347	0.367	0.374	0.375
NCI-H1792	0.563	0.239	0.643	0.65	0.673	0.427	0.307	0.37	0.503	0.498										
NCI-H2342						0.89	0.7	0.844	0.797	0.875	0.749	0.753	0.721	0.716	0.745	0.889	1.03	0.949	1.08	1.14
SW 900						0.719	0.736	0.787	0.821	0.843	0.433	0.357	0.516	0.33	0.188	1.05	0.89	0.797	0.756	0.851
